Test results taken from PubChem BioAssay AID1963833 (Molecular Pharmacology Branch, DTP, NCI, 2024).

Tested on: 883617-216-R-J1-PDC complex spheroid viability
Assay: Anticancer human tumor 883617-216-R-J1-PDC patient-derived bladder carcinoma cell line growth inhibition [POLQ]
Conditions: for IC50: curve of first compound; for viability, T/C: stronger effect = lower value
Summary of the method: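 Growth inhibition in 3D: complex spheroids (tumor PDC, HUVEC, MSC) treated with POLQ inhibitor combinations; where Cmax unknown, highest tested concentration 10 microM, except SN-38 at 1 microM.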

[1] = second compound 0.0316 µM, first compound 0.0316 µM
[2] = second compound 0.0316 µM, first compound 0.1 µM
[3] = second compound 0.0316 µM, first compound 0.316 µM
[4] = second compound 0.0316 µM, first compound 1 µM
[5] = second compound 0.0316 µM, first compound 3.16 µM
[6] = second compound 0.0316 µM, first compound 10 µM
[7] = second compound 0.1 µM, first compound 0.0316 µM
[8] = second compound 0.1 µM, first compound 0.1 µM
[9] = second compound 0.1 µM, first compound 0.316 µM
[10] = second compound 0.1 µM, first compound 1 µM
[11] = second compound 0.1 µM, first compound 3.16 µM
[12] = second compound 0.1 µM, first compound 10 µM
[13] = second compound 0.316 µM, first compound 0.0316 µM
[14] = second compound 0.316 µM, first compound 0.1 µM
[15] = second compound 0.316 µM, first compound 0.316 µM
[16] = second compound 0.316 µM, first compound 1 µM
[17] = second compound 0.316 µM, first compound 3.16 µM
[18] = second compound 0.316 µM, first compound 10 µM
[19] = second compound 1 µM, first compound 0.0316 µM
[20] = second compound 1 µM, first compound 0.1 µM
[21] = second compound 1 µM, first compound 0.316 µM
[22] = second compound 1 µM, first compound 1 µM
[23] = second compound 1 µM, first compound 3.16 µM
[24] = second compound 1 µM, first compound 10 µM
[25] = second compound 3.16 µM, first compound 0.0316 µM
[26] = second compound 3.16 µM, first compound 0.1 µM
[27] = second compound 3.16 µM, first compound 0.316 µM
[28] = second compound 3.16 µM, first compound 1 µM
[29] = second compound 3.16 µM, first compound 3.16 µM
[30] = second compound 3.16 µM, first compound 10 µM
[31] = second compound 10 µM, first compound 0.0316 µM
[32] = second compound 10 µM, first compound 0.1 µM
[33] = second compound 10 µM, first compound 0.316 µM
[34] = second compound 10 µM, first compound 1 µM
[35] = second compound 10 µM, first compound 3.16 µM
[36] = second compound 10 µM, first compound 10 µM
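Also: spheroids exposed to compounds for seven days before readout.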
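For viability, T/C in this document: 100% = DMSO vehicle control viability.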

`CC1COCCN1c1cc(C2(S(C)(=N)=O)CC2)nc(-c2ccnc3[nH]ccc23)n1` (centres undefined) + COC1C(OC(N)=O)C(O)C(Oc2ccc3c(O)c(NC(=O)c4ccc(O)c(CC=C(C)C)c4)c(=O)oc3c2C)OC1(C)C was tested, and the IC50 (second compound 0.0316 µM) was 2.63 µM, the IC50 (second compound 0.1 µM) was 2.11 µM and the IC50 (second compound 0.316 µM) was 2.53 µM. It also gave an IC50 (second compound 1 µM) of 3.63 µM, an IC50 (second compound 3.16 µM) of 1.83 µM and an IC50 (second compound 10 µM) of 2.95 µM. The viability, T/C [1] was 89%, the viability, T/C [2] was 101% and the viability, T/C [3] was 84.5%. It also gave a viability, T/C [4] of 83.5%, a viability, T/C [5] of 43.5% and a viability, T/C [6] of 31.2%. For the same compound, the viability, T/C [7] was 91.1%, the viability, T/C [8] was 91.5% and the viability, T/C [9] was 87.3%. It also gave a viability, T/C [10] of 69.1%, a viability, T/C [11] of 39.1% and a viability, T/C [12] of 37.1%. The viability, T/C [13] was 99.4%, the viability, T/C [14] was 89.6% and the viability, T/C [15] was 82.7%. The viability, T/C [16] was 67.8%, the viability, T/C [17] was 42.7% and the viability, T/C [18] was 38.7%. For the same compound, the viability, T/C [19] was 102%, the viability, T/C [20] was 84.8% and the viability, T/C [21] was 91.2%. The viability, T/C [22] was 70.8%, the viability, T/C [23] was 51.9% and the viability, T/C [24] was 31.3%. It also gave a viability, T/C [25] of 88.3%, a viability, T/C [26] of 97.3% and a viability, T/C [27] of 97.1%. The viability, T/C [28] was 61.8%, the viability, T/C [29] was 45.7% and the viability, T/C [30] was 32.6%. The viability, T/C [31] was 85.1%, the viability, T/C [32] was 82.4% and the viability, T/C [33] was 89.9%. It also gave a viability, T/C [34] of 65%, a viability, T/C [35] of 52.5% and a viability, T/C [36] of 40.5%.

In the case of `CCCS(=O)(=O)Nc1ccc(F)c(C(=O)c2c[nH]c3ncc(-c4ccc(Cl)cc4)cc23)c1F` + COC1C(OC(N)=O)C(O)C(Oc2ccc3c(O)c(NC(=O)c4ccc(O)c(CC=C(C)C)c4)c(=O)oc3c2C)OC1(C)C, the IC50 (second compound 0.0316 µM) is reported as 8.23 µM, the IC50 (second compound 0.1 µM) is reported as 9.58 µM and the IC50 (second compound 0.316 µM) is reported as > 10 µM. The IC50 (second compound 1 µM) was 9.07 µM, the IC50 (second compound 3.16 µM) was > 10 µM and the IC50 (second compound 10 µM) was 8.99 µM. It also gave a viability, T/C [1] of 90.3%, a viability, T/C [2] of 103% and a viability, T/C [3] of 103%. For the same compound, the viability, T/C [4] was 94.2%, the viability, T/C [5] was 84.6% and the viability, T/C [6] was 42.9%. For the same compound, the viability, T/C [7] was 105%, the viability, T/C [8] was 119% and the viability, T/C [9] was 108%. It also gave a viability, T/C [10] of 105%, a viability, T/C [11] of 76.8% and a viability, T/C [12] of 49%. The viability, T/C [13] was 102%, the viability, T/C [14] was 102% and the viability, T/C [15] was 102%. The viability, T/C [16] was 103%, the viability, T/C [17] was 90% and the viability, T/C [18] was 50.1%. The viability, T/C [19] was 103%, the viability, T/C [20] was 93.9% and the viability, T/C [21] was 106%. It also gave a viability, T/C [22] of 98.5%, a viability, T/C [23] of 100% and a viability, T/C [24] of 45.3%. It also gave a viability, T/C [25] of 94.8%, a viability, T/C [26] of 88% and a viability, T/C [27] of 103%. The viability, T/C [28] was 105%, the viability, T/C [29] was 96.4% and the viability, T/C [30] was 56.4%. It also gave a viability, T/C [31] of 106%, a viability, T/C [32] of 96.7% and a viability, T/C [33] of 97.3%. It also gave a viability, T/C [34] of 103%, a viability, T/C [35] of 93.2% and a viability, T/C [36] of 45.4%.
